Literature values as cited in patent publication US20090114566A1, “METHOD OF UPGRADING HEAVY HYDROCARBON STREAMS TO JET PRODUCTS” (Chevron U.S.A. Inc., priority 2007, published 2009).

test system: rats; conditions: rat, in vivo, po

Row | Structure (SMILES) | LD50
1 | O=C(O)CC(S)C(=O)O (stereo not drawn) [mercapto-succinic acid] | 800 mg/kg
2 | COCC(=O)O [methoxy-acetic acid] | 3200 mg/kg
3 | O=C(O)CCC(=O)O [succinic acid] | 500 mg/kg
4 | O=CC(=O)O [glyoxylic, glyoxylic acid] | 3000 mg/kg
5 | O=C(O)/C=C/C(=O)O [fumaric acid] | 10700 mg/kg
6 | CCOCC(=O)O [ethoxy-acetic acid] | 1292 mg/kg

same assay, conditions: single oral dose to rats

Row | Structure (SMILES) | LD50
7 | CC(O)C(=O)O (stereo not drawn) [lactic acid] | 3543 mg/kg
8 | O=C(O)CC(O)C(=O)O (stereo not drawn) [malic acid] | 1600 mg/kg
9 | O=C(O)[C@H](O)[C@@H](O)[C@H](O)[C@H](O)CO [gluconic acid] | 10380 mg/kg
